From patent US20250152580A1, “METHODS FOR TREATING IMMUNE DISEASES” (Ascentage Pharma (Suzhou) co., Ltd., priority 2022, published 2025)
“Also recorded” adds a separate entry of the source.

How the values were obtained:
Assay type in all cases: in vivo
[1] = system: IL-23 induced psoriasis model; assay: IL-23 induced psoriasis model in C57BL/6 mice; details: Cpd. 4 30 mg/kg po qd day 1-14, compared with Vehicle (0.44 mm day 14)
Text: IL-23 stimulates and promotes differentiation of Th17 cells. IL-23 is a heterodimeric cytokine with two subunits. It drives the Th17 response by its binding and signaling through its receptor subunits. When the IL-23R is activated, it promotes the development of Th17 cells and the resulting production of cytokines such as IL-17A, IL-17F, and IL-22, all which are involved in mediating psoriasiform changes.
C57BL/6 mice (7-8 weeks old) were obtained from Vital River Laboratory Animal Technology Co., Ltd. Animals were housed and handled in a temperature-controlled environment with a 12-h light/12-h dark cycle. A total of 40 mice were assigned to 4 groups by randomization based on body weight.
The first day of IL-23 injection is considered as Day 1. Intradermal injection of 20 μL PBS containing 500 ng recombinant mouse IL-23 into the right ear of anesthetized mice using a 30-gauge needle every other day for 14 days (Day 1, Day 3, Day 5, Day 7, Day 9, Day 11, Day 13), 7 times in total. The G1 normal control group intradermal injected with 20 μL PBS.
Mice in Group 1 and Group 2 were treated with vehicle for 14 days (po, qd, from day 1 to day 14). Mice in Group 3 were treated with 30 mg/kg Cpd. 4 for 14 days (po, qd, from day 1 to day 14). […]
Ear thickness of mice was measured in Day 1, 3, 5, 7, 9, 11, 13 and Day 14. […]

[2] = system: OXA induced atopic dermatitis model; assay: OXA induced atopic dermatitis (AD) model in C57BL/6 mice; details: Cpd. 4 10, 30 and 100 mg/kg po qd day 7-25; dexamethasone 25 μL of 0.09% (w/v) topical qd; compared with Vehicle
Text: Atopic dermatitis (AD) is a chronic skin disease that presents with itching, erythema and squamous lesions. Haptenating agent oxazolone (OXA) sensitization and continuous challenge establish AD like skin inflammation.
Female C57BL/6 mice (6 weeks old) were obtained from Biocytogen Laboratory Animal Co. Ltd. Animals were housed and handled in a temperature-controlled environment with a 12-h light/12-h dark cycle. A total of 48 mice were assigned to 6 groups by randomization based on body weight.
To induce AD-like lesion, all right ears of mice except the G1 sham control group were applied with oxazolone (OXA). Briefly, skin inflammation was induced by topical administration with 25 μL of 0.8% OXA dissolved in acetone on day 0, and repeated 25 μl of 0.4% OXA three times a week from day 7 to 25. G1 sham control group was treated same volume of vehicles. Therapeutic groups as 10 mg/kg, 30 mg/kg and 100 mg/kg Cpd. 4 (po, qd, day 7 to day 25) or 25 μL of 0.09% (w/v) dexamethasone (topical, qd, day 7 to day 25) were applied to the mice. The protocols and procedures involving the care and use of animals were approved by the Institutional Animal Care and Use Committee (IACUC) at Biocytogen (Beijing, China).
Ear thickness of mice was measured before application of Oxa and every other day from day 7 to day 26. […]

[3] = system: DSS induced IBD (colitis) model; assay: DSS induced inflammatory bowel disease (IBD) model in C57BL/6 mice; details: for pathological score (colon): day 8, vehicle 10.10±0.17
Text: Female C57BL/6 mice (8 weeks old) were obtained from Beijing Vital River Laboratory Animal Co. Ltd. Animals were housed and handled in a temperature-controlled environment with a 12-h light/12-h dark cycle. A total of 50 mice were assigned to 5 groups by randomization based on body weight.
On Day 0, colitis was induced by administration of 3% DSS (dextran sodium sulfate, molecular weight 36,000-50,000) in drinking water ad libitum for 8 days. 8-week-old mice were divided into 5 groups: Group 2, DSS treatment group (vehicle, po, qd, from day 0 to day 7); Group 3, DSS with 30 mg/kg Cpd. 4 (po, qd, from day 0 to day 7); Group 4, DSS with 100 mg/kg Cpd. 4 (po, qd, from day 0 to day 7); and Group 5, DSS with 50 mg/kg Cyclosporine (po, qd, from day 0 to day 7). For the Group 1 (G1) Sham group, the mice were provided drinking water without DSS.
Clinical signs of IBD were assessed every day based on the scores of disease activity index (DAI) which was evaluated from three parameters using a scoring system from 0 to 4: stool consistency (0, normal stool; 1, soft but still formed stool; 2, soft and not formed stool; 3, very soft and wet stool; 4, watery diarrhea), bleeding score (0, negative hemoccult; 1, weak positive hemoccult; 2, positive hemoccult; 3, blood trace in stool visible; 4, gross rectal bleeding) and body weight loss (0, no body weight loos; 1, 1-5% body weight loss; 2, 6-10% body weight loss; 3, 11-20% body weight loss; 4, >20% body weight loss).
At the end of induction with DSS, the animals were euthanized, dissected and the entire colon was quickly removed and gently cleared of feces.
The entire colon was weighed, and the total length was measured. Colon weight gain and shortening is an indirect marker of inflammation. As expected, DSS increased colon weight to 243.8±10.73 mg. Cpd. […] 4 treatment (FIG. 11).
The colon of a mouse was Swiss-rolled and fixed with neutralized PFA followed by H&E staining. After that, the pathologists from WuXi clinical pathological analysis platform, who were blinded to animal ID, reviewed the H&E staining and scored. The pathological scoring standards were as follows: crypt architecture (normal, 0; severe crypt distortion with loss of entire crypts, 3), degree of inflammatory cell infiltration (normal, 0; dense inflammatory infiltrate, 3), muscle thickening (normal, 0; marked muscle thickening present, 3), goblet cell depletion (absent, 0; present, 1) and crypt abscess (absent, 0; present, 1).
At the end of the study (day 8), all the animals were sacrificed by CO2, and the colon tissues were collected and fixed in 10% formalin for pathological analysis (H&E and LFB staining). The histopathological score was evaluated microscopically in a blinded manner.

[4] = Cpd. 4 30 and 100 mg/kg po qd, compared with Vehicle

O=C(NS(=O)(=O)c1ccc(NC[C@H]2COCCO2)c([N+](=O)[O-])c1)c1ccc(N2CCN(CC3=C(c4ccc(Cl)cc4)CC4(CCC4)CC3)CC2)cc1Oc1cnc2[nH]ccc2c1 [Cpd. 4, (S)-N-((4-(((1,4-dioxan-2-yl)methyl)amino)-3-nitrophenyl)sulfonyl)-2-((1H-pyrrolo[2,3-b]pyridin-5-yl)oxy)-4-(4-((6-(4-chlorophenyl)spiro[3.5]non-6-en-7-yl)methyl)piperazin-1-yl)benzamide]
ear thickness [1]: significantly reducing the ear thickness; also recorded: significantly reduced
ear thickness [2]: significantly reducing the ear thickness; also recorded: significantly reduced
colon length ([3]; 30 mg/kg po qd day 0 to day 7, vehicle 4.81±0.08 cm): 5.25±0.11 cm
colon weight ([3]; 30 mg/kg po qd day 0 to day 7, vehicle 243.8±10.73 mg): 188.4 ± 10.48 mg
pathological score (colon) ([3]; 30 mg/kg po qd): 6.70±0.25
pathological score (colon) ([3]; 100 mg/kg po qd): 3.70±0.25
disease activity index (DAI), clinical score of IBD ([3]; Cpd. 4 30 and 100 mg/kg po qd day 0 to day 7, cyclosporine 50 mg/kg po qd, compared with Vehicle): significantly reducing the clinical score; also recorded: significantly reduced
colon length (in words) [3, 4]: significantly increased
colon weight (in words) [3, 4]: significantly decreased
pathological score (in words) ([3]; Cpd. 4, compared with Vehicle): significantly decreased
